Measured values from PMC5829821, “Mmf1p Couples Amino Acid Metabolism to Mitochondrial DNA Maintenance in Saccharomyces cerevisiae” (mBio, 2018).

Experiments:
Format in all cases: biochemical
RidA = target: T1, RidA (Salmonella enterica, UniProt Q7CP78); assay: coupled: 2AA generated by Ilv1p([…]-576) from L-serine, pyruvate at A230; conditions: 50 mM CHES pH 9.5, 0.6 µM Ilv1p, 1.3 µM RidA
T1 construct: purified RidA, preparation described in earlier work
T1 sequence (Q7CP78 1-128): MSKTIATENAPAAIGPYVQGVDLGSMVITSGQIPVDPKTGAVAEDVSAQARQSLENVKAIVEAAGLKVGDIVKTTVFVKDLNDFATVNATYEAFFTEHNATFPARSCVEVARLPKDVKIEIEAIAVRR

Mmf1p(21−147) = target: T2, Mmf1p(21−147) (Saccharomyces cerevisiae, UniProt P40185); assay: as above; conditions: 50 mM CHES pH 9.5, 0.6 µM Ilv1p, 1.3 µM Mmf1p
T2 construct: gene MMF1
T2 sequence (P40185 21-145): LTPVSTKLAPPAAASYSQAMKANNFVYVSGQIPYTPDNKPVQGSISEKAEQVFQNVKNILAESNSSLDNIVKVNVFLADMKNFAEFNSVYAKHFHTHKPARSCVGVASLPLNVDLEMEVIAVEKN

Ilv1p(46−576) [1] = target: T3, Ilv1p(46−576) (Saccharomyces cerevisiae, UniProt P00927); assay: pyruvate formation at A230, Michaelis-Menten fit; conditions: 50 mM potassium phosphate pH 8
T3 construct: gene ILV1
T3 sequence (P00927 46-576): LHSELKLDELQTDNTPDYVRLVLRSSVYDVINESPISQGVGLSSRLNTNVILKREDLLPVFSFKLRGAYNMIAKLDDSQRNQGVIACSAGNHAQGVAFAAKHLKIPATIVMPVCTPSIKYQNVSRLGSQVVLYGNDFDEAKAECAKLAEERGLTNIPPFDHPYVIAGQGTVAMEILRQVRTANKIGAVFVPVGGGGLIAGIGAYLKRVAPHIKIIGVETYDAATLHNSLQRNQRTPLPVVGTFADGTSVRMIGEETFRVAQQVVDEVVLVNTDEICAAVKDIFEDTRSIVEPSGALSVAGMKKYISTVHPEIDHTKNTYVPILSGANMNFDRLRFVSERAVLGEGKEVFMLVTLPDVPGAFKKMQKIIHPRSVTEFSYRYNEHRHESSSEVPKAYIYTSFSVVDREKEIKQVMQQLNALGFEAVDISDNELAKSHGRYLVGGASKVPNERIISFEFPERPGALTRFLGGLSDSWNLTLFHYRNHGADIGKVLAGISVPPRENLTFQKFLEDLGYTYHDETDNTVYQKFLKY

Ilv1p(46−576) [2] = target: T3, Ilv1p(46−576); conditions: 120 mM L-serine, 50 mM potassium phosphate pH 8; allosteric

SMILES: C=C(N)C(=O)O [2-aminoacrylate]
- coupled: 2AA generated by Ilv1p(46-576) from L-serine, pyruvate at A230 (RidA): 2AA-hydrolyzing activity of Mmf1p was indistinguishable from that of the well-characterized RidA enzyme
- coupled: 2AA generated by Ilv1p(46-576) from L-serine, pyruvate at A230 (Mmf1p(21−147)): released 2AA, which Mmf1p used as a substrate

SMILES: N[C@@H](CO)C(=O)O [L-serine]
- pyruvate formation at A230, Michaelis-Menten fit (Ilv1p(46−576) [1]): In vitro, Ilv1p dehydrated serine and released 2AA

SMILES: CC[C@H](C)[C@H](N)C(=O)O [isoleucine]
- inhibition at 3.3 mM (Ilv1p(46−576) [2]): insensitive to isoleucine concentrations that completely inhibited the wild-type enzyme
